The values below come from patent publication US10280149B2, “Therapeutic compounds and uses thereof” (GENENTECH, INC., priority 2015, dated 2019).

Where a name gives a salt, the structure may show the parent alone.

Chain of Full length KDM2B (Q8NHM5 whole entry): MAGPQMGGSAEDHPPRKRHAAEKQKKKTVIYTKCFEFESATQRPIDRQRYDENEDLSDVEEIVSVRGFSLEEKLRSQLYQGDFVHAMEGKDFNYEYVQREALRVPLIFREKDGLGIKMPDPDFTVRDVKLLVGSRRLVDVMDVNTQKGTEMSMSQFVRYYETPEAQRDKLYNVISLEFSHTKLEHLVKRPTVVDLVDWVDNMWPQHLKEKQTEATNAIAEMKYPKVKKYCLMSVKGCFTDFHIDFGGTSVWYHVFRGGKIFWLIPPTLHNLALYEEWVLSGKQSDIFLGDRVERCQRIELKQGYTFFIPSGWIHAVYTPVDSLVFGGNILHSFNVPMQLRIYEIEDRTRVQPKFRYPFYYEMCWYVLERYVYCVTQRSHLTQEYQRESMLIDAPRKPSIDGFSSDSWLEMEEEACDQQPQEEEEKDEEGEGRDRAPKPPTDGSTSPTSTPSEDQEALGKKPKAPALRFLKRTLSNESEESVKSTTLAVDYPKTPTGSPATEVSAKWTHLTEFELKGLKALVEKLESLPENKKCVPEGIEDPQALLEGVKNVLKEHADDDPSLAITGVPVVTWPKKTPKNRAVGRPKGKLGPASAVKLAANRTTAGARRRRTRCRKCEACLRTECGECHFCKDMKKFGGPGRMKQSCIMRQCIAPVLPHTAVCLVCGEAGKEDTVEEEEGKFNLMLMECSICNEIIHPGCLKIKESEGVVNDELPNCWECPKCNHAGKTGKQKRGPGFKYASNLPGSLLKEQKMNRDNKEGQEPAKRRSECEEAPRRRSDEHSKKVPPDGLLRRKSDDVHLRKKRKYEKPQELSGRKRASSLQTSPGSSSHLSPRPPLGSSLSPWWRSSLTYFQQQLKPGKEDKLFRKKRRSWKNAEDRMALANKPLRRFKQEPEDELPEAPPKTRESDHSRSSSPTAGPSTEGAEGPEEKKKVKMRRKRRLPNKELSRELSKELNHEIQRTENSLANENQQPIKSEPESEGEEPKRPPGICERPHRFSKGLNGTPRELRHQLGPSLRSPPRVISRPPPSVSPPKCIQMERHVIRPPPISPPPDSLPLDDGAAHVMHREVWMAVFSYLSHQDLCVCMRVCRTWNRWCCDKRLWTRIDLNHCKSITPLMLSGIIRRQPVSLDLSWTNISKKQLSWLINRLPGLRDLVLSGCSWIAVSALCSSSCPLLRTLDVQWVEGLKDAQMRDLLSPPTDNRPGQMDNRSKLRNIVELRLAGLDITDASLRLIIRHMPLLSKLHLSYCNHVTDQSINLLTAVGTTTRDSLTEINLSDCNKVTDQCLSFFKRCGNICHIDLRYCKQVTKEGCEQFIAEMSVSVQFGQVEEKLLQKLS

The target in the experiment is Full length KDM2B (Homo sapiens (Human), UniProt Q8NHM5). The experiment is described as follows: KDM2B TR-FRET assay for determining inhibitor IC50. Format: biochemical. Particulars: TR-FRET (HTRF), biotin-H3K36me2 peptide substrate, 2-OG 0.3 μM or 6 μM. From the text:
KDM2B TR-FRET Assay for Determining Inhibitor IC50
The KDM2B TR-FRET Assay described above represents an additional embodiment of the invention.
A general note: In TR-FRET formats the signal depends on donor and acceptor labels being close together.
One may read the IC50 as the midpoint of a concentration-inhibition curve. A higher IC50 goes with weaker potency in that assay. On to `O=C(c1ccc2c(Oc3ccccc3)cccc2c1)C1CCCN(CC2CC2)C1` (stereo not shown) [Example 112, (1-(cyclopropylmethyl)piperidin-3-yl)(5-phenoxynaphthalen-2-yl)methanone], for which the IC50 came out at 0.175 µM. That is a sub-micromolar value. Under `Cc1ccc2cc(C(=O)C3CCCN(CC4CC4)C3)ccc2n1` (stereo not shown) [Example 173] stands 0.255 µM; under `CCN1CCCC(C(=O)c2ccc3cc(OC)ccc3c2)C1` (stereo not shown) [Example 74, (1-ethyl-3-piperidyl)-(6-methoxy-2-naphthyl)methanone], 1.15 µM; under `COc1ccc2cc(C(=O)C3CCCN(CC4CC4)C3)ccc2c1C` (stereo not shown) [Example 49, [1-(cyclopropylmethyl)-3-piperidyl]-(6-methoxy-5-methyl-2-naphthyl)methanone], 0.163 µM. In the case of `COc1ccc2cc(C(=O)C3CCCN(CC4CC4)C3)ccc2n1` (stereo not shown) [Example 122, (1-(cyclopropylmethyl)piperidin-3-yl)(2-methoxyquinolin-6-yl)methanone] it was 0.205 µM; in that of `CCC1CCN(C2CCC2)CC1C(=O)c1ccc2cc(OC)ccc2c1` (single isomer, unassigned) [Example 142c, (1-cyclobutyl-4-ethylpiperidin-3-yl)(6-methoxynaphthalen-2-yl)methanone], 0.207 µM.

`CCCN1CCCC(C(=O)c2ccc3c(c2)OCCO3)C1` (stereo not shown) [Example 108, 2,3-dihydro-1,4-benzodioxin-6-yl-(1-propyl-3-piperidyl)methanone] returned an IC50 of 0.297 µM. In the case of `CCCN1CCCC(C(=O)c2ccc3c(c2)CCCC3)C1` (stereo not shown) [Example 107, (1-propyl-3-piperidyl)-tetralin-6-yl-methanone] it was 0.0998 µM. Under `COc1ccc2cc(C(=O)C3CCCN(C4CCC4)C3)ccc2c1` (stereo not shown) [Example 76, (1-cyclobutyl-3-piperidyl)-(6-methoxy-2-naphthyl)methanone] stands 0.619 µM.

`CNC(=O)c1cc(C(=O)C2CCCN(C3CCC3)C2)cc2ccccc12` (stereo not shown) [Example 42, 3-(1-cyclobutylpiperidine-3-carbonyl)-N-methyl-naphthalene-1-carboxamide] registered an IC50 of 0.243 µM. In turn, `CCCN1CCCC(C(=O)c2cccc(OCc3ccccc3)c2)C1` (stereo not shown) [Example 95, (3-benzyloxyphenyl)-(1-propyl-3-piperidyl)methanone] yielded a half-maximal inhibitory concentration (IC50) of 0.823 µM. This IC50 is about 3.4-fold higher than that of the molecule before. In the case of `COc1ccc2cc(C(=O)C3CN(CC4CC4)CCC3C(F)(F)F)ccc2c1` (single isomer, unassigned) [Example 138b, (1-(cyclopropylmethyl)-4-(trifluoromethyl)piperidin-3-yl)(6-methoxynaphthalen-2-yl)methanone] it was 4.8 µM; in that of `COc1ccc2cc(C(=O)C3CCCN(CC4CC4)C3)ccc2c1CC#N` (stereo not shown) [Example 53, 2-[6-[1-(cyclopropylmethyl)piperidine-3-carbonyl]-2-methoxy-1-naphthyl]acetonitrile], 0.0335 µM.

For the molecule `O=C(c1ccc(Oc2ccccc2)cc1)[C@H]1CCCN(CC2CC2)C1` [Example 31, [(3S)-1-(cyclopropylmethyl)-3-piperidyl]-(4-phenoxyphenyl)methanone], it took 0.136 µM to reach half-maximal inhibition (IC50).

The molecule `COc1ccc2cc(C(=O)C3CC(O)CN(CC4CC4)C3)ccc2c1` (stereo not shown) [Example 155, (1-(cyclopropylmethyl)-5-hydroxypiperidin-3-yl)(6-methoxynaphthalen-2-yl)methanone] had an IC50 of 0.779 µM. Consider `COc1ccc2cc(C(=O)[C@H]3C[C@@H](C)CN(CC4CC4)C3)ccc2c1` (single isomer, unassigned) [Example 139a, (1-(cyclopropylmethyl)-5-methylpiperidin-3-yl)(6-methoxynaphthalen-2-yl)methanone], for which the IC50 was determined as 0.333 µM. In the case of `O=C(c1cccc(-c2ccccc2)c1)C1CCCN(CC2CC2)C1` (stereo not shown) [Example 25, [1-(cyclopropylmethyl)-3-piperidyl]-(3-phenylphenyl)methanone] it was 1.4 µM; in that of `COc1ccc2cc(C(=O)C3CCCN(C4CCOC4)C3)ccc2c1` (stereo not shown) [Example 15, (6-methoxy-2-naphthyl)-(1-tetrahydrofuran-3-yl-3-piperidyl)methanone], 0.43 µM. Under `O=C(c1ccc(Oc2ccccc2)cc1)[C@@H]1CCCN(CC2CC2)C1` [Example 30, [(3R)-1-(cyclopropylmethyl)-3-piperidyl]-(4-phenoxyphenyl)methanone] stands 5.9 µM; under `COc1ccc2cc(C(=O)C3CCCN(C4CCCC4)C3)ccc2c1C` (stereo not shown) [Example 51, (1-cyclopentyl-3-piperidyl)-(6-methoxy-5-methyl-2-naphthyl)methanone], 0.118 µM; under `CCC[C@H]1CCN(C2CCC2)C[C@H]1C(=O)c1ccc2cc(OC)ccc2c1` (single isomer, unassigned) [Example 140c, (1-cyclobutyl-4-propylpiperidin-3-yl)(6-methoxynaphthalen-2-yl)methanone], 0.00548 µM. In the case of `CCCN1CCCC(C(=O)c2cc(OC)cc(OC)c2)C1` (stereo not shown) [Example 105, (3,5-dimethoxyphenyl)-(1-propyl-3-piperidyl)methanone] it was 0.272 µM; in that of `CCCN1CCCC(C(=O)c2ccc(C)c(C)c2)C1` (stereo not shown) [Example 106, (3,4-dimethylphenyl)-(1-propyl-3-piperidyl)methanone], 0.247 µM. Consider `O=C(c1ccc2c(OCc3ccccc3)cccc2c1)C1CCCN(CC2CC2)C1` (stereo not shown) [Example 123, (5-(benzyloxy)naphthalen-2-yl)(1-(cyclopropylmethyl)piperidin-3-yl)methanone], for which the IC50 came out at 0.0909 µM. Under `COc1cccc2cc(C(=O)C3CN(CC4CC4)CCC3C)ccc12` (single isomer, unassigned) [Example 136a, (1-(cyclopropylmethyl)-4-methylpiperidin-3-yl)(5-methoxynaphthalen-2-yl)methanone] stands 0.0414 µM; under `O=C(c1cccc(Oc2ccccc2)c1)C1CCCN(CC2CC2)C1` (stereo not shown) [Example 21, [1-(cyclopropylmethyl)-3-piperidyl]-(3-phenoxyphenyl)methanone], 0.461 µM.

For the molecule `COc1ccc2cc(C(=O)[C@H]3CN(C4CCC4)CC[C@H]3C)ccc2c1CC#N` (stereo in doubt) [Example 182a, 2-(6-(1-cyclobutyl-4-methylpiperidine-3-carbonyl)-2-methoxynaphthalen-1-yl)acetonitrile], the IC50 came to 0.29 µM. Regarding `CCCN1CCCC(C(=O)c2cccc(N(C)C)c2)C1` (stereo not shown) [Example 90, [3-(dimethylamino)phenyl]-(1-propyl-3-piperidyl)methanone], the IC50 is 1.6 µM.

The molecule `O=C(c1ccc(C(F)(F)F)cc1)C1CCCN(CC2CC2)C1` (stereo not shown) [Example 22, [1-(cyclopropylmethyl)-3-piperidyl]-[4-(trifluoromethyl)phenyl]methanone] registered a half-maximal inhibitory concentration (IC50) of 1.4 µM. Regarding `COc1ccc2cc(C(=O)C3CCCN(C(C)C)C3)ccc2c1` (stereo not shown) [Example 81, (1-isopropyl-3-piperidyl)-(6-methoxy-2-naphthyl)methanone], 6.5 µM corresponded to half-maximal inhibition (IC50). Under `COc1ccc2cc(C(=O)C3CCCN(CC4CC4)C3)ccc2c1` (stereo not shown) [Example 77, [1-(cyclopropylmethyl)-3-piperidyl]-(6-methoxy-2-naphthyl)methanone] stands 0.208 µM. Under `O=C(c1cc(CO)c2ccccc2c1)C1CCCN(C2CCCC2)C1` (stereo not shown) [Example 57, (1-cyclopentyl-3-piperidyl)-[4-(hydroxymethyl)-2-naphthyl]methanone] stands 0.125 µM; under `CCCC1CCN(C2CCC2)CC1C(=O)c1ccc2cc(OC)ccc2c1` (single isomer, unassigned) [Example 140d, (1-cyclobutyl-4-propylpiperidin-3-yl)(6-methoxynaphthalen-2-yl)methanone], 0.00996 µM; under `O=C(c1ccccc1Cl)C1CCCN(CC2CC2)C1` (stereo not shown) [Example 113, (2-chlorophenyl)(1-(cyclopropylmethyl)piperidin-3-yl)methanone], 5.4 µM. Under `COc1ccc2cc(C(=O)C3CCCN(CCC#N)C3)ccc2c1` (stereo not shown) [Example 84, 3-[3-(6-methoxynaphthalene-2-carbonyl)-1-piperidyl]propanenitrile] stands 0.709 µM. Turning to `CC[C@H]1CCN(C2CCC2)C[C@@H]1C(=O)c1ccc2c(CC#N)c(OC)ccc2c1` (stereo in doubt) [Example 183b, 2-(6-(1-cyclobutyl-4-ethylpiperidine-3-carbonyl)-2-methoxynaphthalen-1-yl)acetonitrile], the 50% inhibitory concentration (IC50) is 0.00206 µM. On to `CCCN1CCCC(C(=O)c2ccccc2OC)C1` (stereo not shown) [Example 99, (2-methoxyphenyl)-(1-propyl-3-piperidyl)methanone], for which the IC50 was determined as 5.5 µM. This IC50 is about 2700-fold higher than that of the molecule before. Take `COc1ccc2cc(C(=O)[C@@H]3CN(C4CCC4)CC[C@@H]3C)ccc2c1CC#N` (stereo in doubt) [Example 182b, 2-(6-(1-cyclobutyl-4-methylpiperidine-3-carbonyl)-2-methoxynaphthalen-1-yl)acetonitrile]: the midpoint of inhibition, the IC50, lay at 0.00112 µM. Regarding `CCCC1CCN(C2CCC2)CC1C(=O)c1ccc2cc(OC)ccc2c1` (single isomer, unassigned) [Example 140a, (1-cyclobutyl-4-propylpiperidin-3-yl)(6-methoxynaphthalen-2-yl)methanone], the IC50 is 0.31 µM. Compared with the last molecule, the IC50 is about 280-fold higher. Under `COc1ccc2cc(C(=O)C3CCCN(CC4CC4)C3)ccc2c1CO` (stereo not shown) [Example 188, (1-(cyclopropylmethyl)piperidin-3-yl)(5-(hydroxymethyl)-6-methoxynaphthalen-2-yl)methanone hydrochloride] stands 0.133 µM; under `Cc1ccc2cc(C(=O)C3CCCN(C4CCC4)C3)ccc2c1` (stereo not shown) [Example 165, (1-cyclobutylpiperidin-3-yl)(6-methylnaphthalen-2-yl)methanone hydrochloride], 0.163 µM; under `CCC[C@H]1CCN(C2CCC2)C[C@@H]1C(=O)c1ccc2cc(OC)ccc2c1` (single isomer, unassigned) [Example 140b, (1-cyclobutyl-4-propylpiperidin-3-yl)(6-methoxynaphthalen-2-yl)methanone], 0.328 µM.

As to `CN(C)C(=O)c1ccc2cc(C(=O)C3CCCN(C4CCC4)C3)ccc2c1` (stereo not shown) [Example 177, 6-(1-cyclobutylpiperidine-3-carbonyl)-N,N-dimethyl-2-naphthamide], the IC50 is 0.113 µM.
